Measured values from patent US9695155B2, “Herbicidal substituted pyrimidinyloxy benzene compounds” (E. I. DU PONT DE NEMOURS AND COMPANY, priority 2013, dated 2017).

Legend:
chickweed = experiment: Test D preemergence; assay type: in vivo, Stellaria media; conditions: Stellaria media, pre-emergence; for pest or weed control at 125 g/ha: 125 g ai/ha
Summary of the method: (§1)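 Greenhouse herbicide screen. Sowing into silt loam for preemergence application; foliar application to 2–18 cm seedlings in potting mix for postemergence. 0–100 visual control rating after 7–21 d.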

bromegrass, downy = experiment: Test D preemergence; assay type: in vivo, Bromus tectorum; conditions: Bromus tectorum, pre-emergence; for pest or weed control at 16 g/ha: 16 g ai/ha, scale 0 (no effect) to 100 (complete control), read-out: Plant response rating, Bromegrass, Downy; for pest or weed control at 31 g/ha: 31 g ai/ha; for pest or weed control at 62 g/ha: 62 g ai/ha; for pest or weed control at 125 g/ha: 125 g ai/ha
Summary of the method: as §1

lambsquarters [1] = experiment: Test D preemergence; assay type: in vivo, Chenopodium album; conditions: Chenopodium album, pre-emergence; for pest or weed control at 16 g/ha: 16 g ai/ha, scale 0 (no effect) to 100 (complete control), read-out: Plant response rating, Lambsquarters; for pest or weed control at 31 g/ha: 31 g ai/ha; for pest or weed control at 62 g/ha: 62 g ai/ha; for pest or weed control at 125 g/ha: 125 g ai/ha
Summary of the method: as §1

spring wheat = experiment: Test D preemergence; assay type: in vivo, Triticum aestivum; conditions: Triticum aestivum, pre-emergence; for plant injury at 16 g/ha: 16 g ai/ha; for plant injury at 16 g/ha / plant injury at 31 g/ha: scale 0 (no effect) to 100 (complete control), read-out: Plant response rating, Wheat, Spring; for plant injury at 31 g/ha: 31 g ai/ha; for plant injury at 62 g/ha: 62 g ai/ha; for plant injury at 125 g/ha: 125 g ai/ha
Summary of the method: as §1

winter wheat = experiment: Test D preemergence; assay type: in vivo, Triticum aestivum; conditions: Triticum aestivum, pre-emergence; for plant injury at 16 g/ha: 16 g ai/ha; for plant injury at 16 g/ha / plant injury at 31 g/ha: scale 0 (no effect) to 100 (complete control), read-out: Plant response rating, Wheat, Winter; for plant injury at 31 g/ha: 31 g ai/ha; for plant injury at 62 g/ha: 62 g ai/ha; for plant injury at 125 g/ha: 125 g ai/ha
Summary of the method: as §1

field poppy = experiment: Test D postemergence; assay type: in vivo, Papaver rhoeas; conditions: Papaver rhoeas, post-emergence; for pest or weed control at 16 g/ha: 16 g ai/ha, scale 0-100, read-out: Plant response rating, Field Poppy; for pest or weed control at 31 g/ha: 31 g ai/ha; for pest or weed control at 62 g/ha: 62 g ai/ha; for pest or weed control at 125 g/ha: 125 g ai/ha
Summary of the method: as §1

deadnettle = experiment: Test D postemergence; assay type: in vivo, Lamium amplexicaule; conditions: Lamium amplexicaule, post-emergence; for pest or weed control at 16 g/ha: 16 g ai/ha, scale 0-100, read-out: Plant response rating, Deadnettle; for pest or weed control at 31 g/ha: 31 g ai/ha; for pest or weed control at 62 g/ha: 62 g ai/ha; for pest or weed control at 125 g/ha: 125 g ai/ha
Summary of the method: as §1

lambsquarters [2] = experiment: Test D postemergence; assay type: in vivo, Chenopodium album; conditions: Chenopodium album, post-emergence; for pest or weed control at 16 g/ha: 16 g ai/ha, scale 0-100, read-out: Plant response rating, Lambsquarters; for pest or weed control at 31 g/ha: 31 g ai/ha; for pest or weed control at 62 g/ha: 62 g ai/ha; for pest or weed control at 125 g/ha: 125 g ai/ha
Summary of the method: as §1

chamomile = experiment: Test D postemergence; assay type: in vivo, Matricaria inodora; conditions: Tripleurospermum inodorum, post-emergence; for pest or weed control at 16 g/ha: 16 g ai/ha, scale 0-100, read-out: Plant response rating, Chamomile; for pest or weed control at 31 g/ha: 31 g ai/ha; for pest or weed control at 62 g/ha: 62 g ai/ha; for pest or weed control at 125 g/ha: 125 g ai/ha
Summary of the method: as §1

wild oat = experiment: Test D postemergence; assay type: in vivo, Avena fatua; conditions: Avena fatua, post-emergence; for pest or weed control at 16 g/ha: 16 g ai/ha, scale 0-100, read-out: Plant response rating, Oat, Wild; for pest or weed control at 31 g/ha: 31 g ai/ha; for pest or weed control at 62 g/ha: 62 g ai/ha; for pest or weed control at 125 g/ha: 125 g ai/ha
Summary of the method: as §1

windgrass = experiment: Test D postemergence; assay type: in vivo, Apera spica-venti; conditions: Apera spica-venti, post-emergence; for pest or weed control at 16 g/ha: 16 g ai/ha, scale 0-100, read-out: Plant response rating, Windgrass; for pest or weed control at 31 g/ha: 31 g ai/ha; for pest or weed control at 62 g/ha: 62 g ai/ha; for pest or weed control at 125 g/ha: 125 g ai/ha
Summary of the method: as §1

[3] = scale 0-100, read-out: Plant response rating, Chickweed
[4] = scale 0-100, read-out: Plant response rating, Bromegrass, Downy
[5] = scale 0-100, read-out: Plant response rating, Lambsquarters
[6] = scale 0-100, read-out: Plant response rating, Wheat, Spring
[7] = scale 0-100, read-out: Plant response rating, Wheat, Winter
[8] = scale 0 to 100 (0 no effect, 100 complete control), read-out: Plant response rating, Field Poppy
[9] = scale 0 to 100 (0 no effect, 100 complete control), read-out: Plant response rating, Deadnettle
[10] = scale 0 to 100 (0 no effect, 100 complete control), read-out: Plant response rating, Lambsquarters
[11] = scale 0 to 100 (0 no effect, 100 complete control), read-out: Plant response rating, Chamomile
[12] = scale 0 to 100 (0 no effect, 100 complete control), read-out: Plant response rating, Oat, Wild
[13] = scale 0 to 100 (0 no effect, 100 complete control), read-out: Plant response rating, Windgrass

FC(F)(F)c1cnn(-c2ccccc2Oc2ncc(Br)cn2)c1 [Compound 18, 5-bromo-2-[2-[4-(trifluoromethyl)-1H-pyrazol-1-yl]phenoxy]pyrimidine]
pest or weed control at 125 g/ha (chickweed; [3]): 90% | pest or weed control at 250 g/ha (chickweed; 250 g ai/ha, scale 0-100, read-out: Plant response rating, Chickweed): 100% | pest or weed control at 16 g/ha (bromegrass, downy): 0% | pest or weed control at 31 g/ha (bromegrass, downy; [4]): 0% | pest or weed control at 62 g/ha (bromegrass, downy; [4]): 5% | pest or weed control at 125 g/ha (bromegrass, downy; [4]): 10% | pest or weed control at 250 g/ha (bromegrass, downy; 250 g ai/ha, scale 0-100, read-out: Plant response rating, Bromegrass, Downy): 50% | pest or weed control at 16 g/ha (lambsquarters [1]): 70% | pest or weed control at 31 g/ha (lambsquarters [1]; [5]): 80% | pest or weed control at 62 g/ha (lambsquarters [1]; [5]): 100% | pest or weed control at 125 g/ha (lambsquarters [1]; [5]): 100% | pest or weed control at 250 g/ha (lambsquarters [1]; 250 g ai/ha, scale 0-100, read-out: Plant response rating, Lambsquarters): 100% | plant injury at 16 g/ha (spring wheat): 0% | plant injury at 31 g/ha (spring wheat): 0% | plant injury at 62 g/ha (spring wheat; [6]): 0% | plant injury at 125 g/ha (spring wheat; [6]): 5% | plant injury at 250 g/ha (spring wheat; 250 g ai/ha, scale 0-100, read-out: Plant response rating, Wheat, Spring): 15% | plant injury at 16 g/ha (winter wheat): 0% | plant injury at 31 g/ha (winter wheat): 0% | plant injury at 62 g/ha (winter wheat; [7]): 5% | plant injury at 125 g/ha (winter wheat; [7]): 5% | plant injury at 250 g/ha (winter wheat; 250 g ai/ha, scale 0-100, read-out: Plant response rating, Wheat, Winter): 40% | pest or weed control at 16 g/ha (field poppy): 80% | pest or weed control at 31 g/ha (field poppy; [8]): 75% | pest or weed control at 62 g/ha (field poppy; [8]): 75% | pest or weed control at 125 g/ha (field poppy; [8]): 100% | pest or weed control at 250 g/ha (field poppy; 250 g ai/ha, scale 0 to 100 (0 no effect, 100 complete control), read-out: Plant response rating, Field Poppy): 100% | pest or weed control at 16 g/ha (deadnettle): 50% | pest or weed control at 31 g/ha (deadnettle; [9]): 65% | pest or weed control at 62 g/ha (deadnettle; [9]): 75% | pest or weed control at 125 g/ha (deadnettle; [9]): 90% | pest or weed control at 250 g/ha (deadnettle; 250 g ai/ha, scale 0 to 100 (0 no effect, 100 complete control), read-out: Plant response rating, Deadnettle): 100% | pest or weed control at 16 g/ha (lambsquarters [2]): 15% | pest or weed control at 31 g/ha (lambsquarters [2]; [10]): 50% | pest or weed control at 62 g/ha (lambsquarters [2]; [10]): 90% | pest or weed control at 125 g/ha (lambsquarters [2]; [10]): 95% | pest or weed control at 250 g/ha (lambsquarters [2]; 250 g ai/ha, scale 0 to 100 (0 no effect, 100 complete control), read-out: Plant response rating, Lambsquarters): 95% | pest or weed control at 16 g/ha (chamomile): 5% | pest or weed control at 31 g/ha (chamomile; [11]): 10% | pest or weed control at 62 g/ha (chamomile; [11]): 5% | pest or weed control at 125 g/ha (chamomile; [11]): 10% | pest or weed control at 250 g/ha (chamomile; 250 g ai/ha, scale 0 to 100 (0 no effect, 100 complete control), read-out: Plant response rating, Chamomile): 10% | pest or weed control at 16 g/ha (wild oat): 10% | pest or weed control at 31 g/ha (wild oat; [12]): 10% | pest or weed control at 62 g/ha (wild oat; [12]): 15% | pest or weed control at 125 g/ha (wild oat; [12]): 20% | pest or weed control at 250 g/ha (wild oat; 250 g ai/ha, scale 0 to 100 (0 no effect, 100 complete control), read-out: Plant response rating, Oat, Wild): 25% | pest or weed control at 16 g/ha (windgrass): 5% | pest or weed control at 31 g/ha (windgrass; [13]): 10% | pest or weed control at 62 g/ha (windgrass; [13]): 10% | pest or weed control at 125 g/ha (windgrass; [13]): 10% | pest or weed control at 250 g/ha (windgrass; 250 g ai/ha, scale 0 to 100 (0 no effect, 100 complete control), read-out: Plant response rating, Windgrass): 10%

FC(F)(F)c1cn(-c2ccccc2Oc2ncc(Cl)cn2)nn1 [Compound 166, 5-chloro-2-[2-[4-(trifluoromethyl)-1H-1,2,3-triazol-1-yl]phenoxy]pyrimidine]
pest or weed control at 16 g/ha (chickweed; 16 g ai/ha, scale 0 (no effect) to 100 (complete control), read-out: Plant response rating, Chickweed): 85% | pest or weed control at 31 g/ha (chickweed; 31 g ai/ha, scale 0-100, read-out: Plant response rating, Chickweed): 95% | pest or weed control at 62 g/ha (chickweed; 62 g ai/ha, scale 0-100, read-out: Plant response rating, Chickweed): 95% | pest or weed control at 125 g/ha (chickweed; [3]): 100% | pest or weed control at 16 g/ha (bromegrass, downy): 5% | pest or weed control at 31 g/ha (bromegrass, downy; [4]): 5% | pest or weed control at 62 g/ha (bromegrass, downy; [4]): 25% | pest or weed control at 125 g/ha (bromegrass, downy; [4]): 50% | pest or weed control at 16 g/ha (lambsquarters [1]): 85% | pest or weed control at 31 g/ha (lambsquarters [1]; [5]): 95% | pest or weed control at 62 g/ha (lambsquarters [1]; [5]): 100% | pest or weed control at 125 g/ha (lambsquarters [1]; [5]): 100% | plant injury at 16 g/ha (spring wheat): 0% | plant injury at 31 g/ha (spring wheat): 0% | plant injury at 62 g/ha (spring wheat; [6]): 10% | plant injury at 125 g/ha (spring wheat; [6]): 60% | plant injury at 16 g/ha (winter wheat): 0% | plant injury at 31 g/ha (winter wheat): 0% | plant injury at 62 g/ha (winter wheat; [7]): 0% | plant injury at 125 g/ha (winter wheat; [7]): 25% | pest or weed control at 16 g/ha (field poppy): 40% | pest or weed control at 31 g/ha (field poppy; [8]): 60% | pest or weed control at 62 g/ha (field poppy; [8]): 80% | pest or weed control at 125 g/ha (field poppy; [8]): 75% | pest or weed control at 16 g/ha (deadnettle): 40% | pest or weed control at 31 g/ha (deadnettle; [9]): 60% | pest or weed control at 62 g/ha (deadnettle; [9]): 65% | pest or weed control at 125 g/ha (deadnettle; [9]): 70% | pest or weed control at 16 g/ha (lambsquarters [2]): 80% | pest or weed control at 31 g/ha (lambsquarters [2]; [10]): 90% | pest or weed control at 62 g/ha (lambsquarters [2]; [10]): 95% | pest or weed control at 125 g/ha (lambsquarters [2]; [10]): 95% | pest or weed control at 16 g/ha (chamomile): 5% | pest or weed control at 31 g/ha (chamomile; [11]): 5% | pest or weed control at 62 g/ha (chamomile; [11]): 10% | pest or weed control at 125 g/ha (chamomile; [11]): 15% | pest or weed control at 16 g/ha (wild oat): 25% | pest or weed control at 31 g/ha (wild oat; [12]): 30% | pest or weed control at 62 g/ha (wild oat; [12]): 35% | pest or weed control at 125 g/ha (wild oat; [12]): 40% | pest or weed control at 16 g/ha (windgrass): 15% | pest or weed control at 31 g/ha (windgrass; [13]): 25% | pest or weed control at 62 g/ha (windgrass; [13]): 35% | pest or weed control at 125 g/ha (windgrass; [13]): 55%
